Source: patent US12692269B2, “Therapeutic compounds” (Genentech, Inc., priority 2019, dated 2026)

How the values were obtained:
Type in all cases: binding
TEAD1 YAP50-100 = TEAD1 YAP50-100 (Homo sapiens, UniProt P28347); experiment: TEAD1-YAP HTRF (TR-FRET) protein-protein interaction assay; conditions: TEAD1, YAP peptide 50-100, HTRF; for EC50: read-out: TEAD1 YAP50-100 HTRF combined: EC50
In short: (§1)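 His-tagged TEAD YAP-binding domain (aa 217-447) pre-bound to Eu anti-His tracer, incubated with compound 30 min, then biotinylated YAP (aa 50-100) or TAZ (aa 13-57) peptide with streptavidin-XL665 added for 60 min at room temperature. TR-FRET read at 665/615 nm; IC50 or EC50 from four-parameter fit.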

[1] = target: TEAD2 TAZ (amino acids 13-57) (Homo sapiens, UniProt Q15562); experiment: TEAD2-TAZ HTRF (TR-FRET) protein-protein interaction assay; conditions: for TEAD2 TAZ HTRF combined: Max % Inhibition: TEAD2, TAZ peptide; for EC50: TEAD2-TAZ HTRF, TR-FRET 665 nm/615 nm, read-out: TEAD2 TAZ HTRF combined: EC50
Chain of TEAD2 TAZ (amino acids 13-57) (Q15562 217-447): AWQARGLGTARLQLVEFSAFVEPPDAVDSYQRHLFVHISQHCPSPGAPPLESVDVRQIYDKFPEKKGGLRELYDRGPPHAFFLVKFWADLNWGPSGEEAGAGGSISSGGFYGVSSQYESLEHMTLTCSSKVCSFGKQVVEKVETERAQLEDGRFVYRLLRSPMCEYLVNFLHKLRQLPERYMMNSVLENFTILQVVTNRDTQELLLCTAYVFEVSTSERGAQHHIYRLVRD
In short: as §1

[2] = target: TEAD4 TAZ (amino acids 13-57) (Homo sapiens, UniProt Q15561); experiment: TEAD4-TAZ HTRF (TR-FRET) protein-protein interaction assay; conditions: for TEAD4 TAZ HTRF combined: Max % Inhibition: TEAD4, TAZ peptide; for EC50: TEAD4-TAZ HTRF, TR-FRET 665 nm/615 nm, read-out: TEAD4 TAZ HTRF combined: EC50
Chain of TEAD4 TAZ (amino acids 13-57) (Q15561 217-434 limits assumed): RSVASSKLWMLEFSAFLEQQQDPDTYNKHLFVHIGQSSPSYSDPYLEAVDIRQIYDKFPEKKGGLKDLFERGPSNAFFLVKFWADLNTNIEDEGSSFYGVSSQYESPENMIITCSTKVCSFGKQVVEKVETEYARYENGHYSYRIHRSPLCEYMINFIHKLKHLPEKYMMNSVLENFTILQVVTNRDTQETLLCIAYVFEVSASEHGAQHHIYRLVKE
In short: as §1

[3] = target: TEAD1 TAZ (amino acids 13-57) (Homo sapiens, UniProt P28347); experiment: TEAD1-TAZ HTRF (TR-FRET) protein-protein interaction assay; conditions: for TEAD1 TAZ HTRF combined: Max % Inhibition: TEAD1, TAZ peptide; for EC50: TEAD1-TAZ HTRF, TR-FRET 665 nm/615 nm, read-out: TEAD1 TAZ HTRF combined: EC50
Chain of TEAD1 TAZ (amino acids 13-57) (P28347 167-426 limits assumed): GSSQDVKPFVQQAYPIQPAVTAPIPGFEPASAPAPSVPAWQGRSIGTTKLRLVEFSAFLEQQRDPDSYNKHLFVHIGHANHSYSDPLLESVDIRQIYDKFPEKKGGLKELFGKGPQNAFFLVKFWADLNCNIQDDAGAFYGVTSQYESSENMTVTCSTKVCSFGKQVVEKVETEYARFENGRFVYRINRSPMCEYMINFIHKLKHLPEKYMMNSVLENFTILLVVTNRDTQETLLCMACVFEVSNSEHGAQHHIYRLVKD
In short: as §1

[4] = target: TEAD3 TAZ (amino acids 13-57) (Homo sapiens, UniProt Q99594); experiment: TEAD3-TAZ HTRF (TR-FRET) protein-protein interaction assay; conditions: for TEAD3 TAZ HTRF combined: Max % Inhibition: TEAD3, TAZ peptide; for EC50: TEAD3-TAZ HTRF, TR-FRET 665 nm/615 nm, read-out: TEAD3 TAZ HTRF combined: EC50
Chain of TEAD3 TAZ (amino acids 13-57) (Q99594 173-435 limits assumed): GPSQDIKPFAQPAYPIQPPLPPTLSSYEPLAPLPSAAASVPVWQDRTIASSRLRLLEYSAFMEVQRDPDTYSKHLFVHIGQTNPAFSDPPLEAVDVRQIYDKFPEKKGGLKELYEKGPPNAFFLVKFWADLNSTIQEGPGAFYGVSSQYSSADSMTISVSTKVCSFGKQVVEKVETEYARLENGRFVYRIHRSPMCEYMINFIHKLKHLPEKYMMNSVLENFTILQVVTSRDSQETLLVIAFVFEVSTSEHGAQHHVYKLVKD
In short: as §1

TEAD4 YAP50-100 = TEAD4 YAP50-100 (Homo sapiens, UniProt Q15561); experiment: TEAD4-YAP HTRF (TR-FRET) protein-protein interaction assay; conditions: TEAD4, YAP peptide 50-100, HTRF; for EC50: read-out: TEAD4 YAP50-100 HTRF combined: EC50
Chain of TEAD4 YAP50-100 (Q15561 217-434 limits assumed): as the sequence (Q15561 217-434 limits assumed) above
In short: as §1

TEAD2 YAP50-100 = TEAD2 YAP50-100 (Homo sapiens, UniProt Q15562); experiment: TEAD2-YAP HTRF (TR-FRET) protein-protein interaction assay; conditions: TEAD2, YAP peptide 50-100, HTRF; for EC50: read-out: TEAD2 YAP50-100 HTRF combined: EC50
Chain of TEAD2 YAP50-100 (Q15562 217-447): as the sequence (Q15562 217-447) above
In short: as §1

TEAD3 YAP50-100 = TEAD3 YAP50-100 (Homo sapiens, UniProt Q99594); experiment: TEAD3-YAP HTRF (TR-FRET) protein-protein interaction assay; conditions: TEAD3, YAP peptide 50-100, HTRF; for EC50: read-out: TEAD3 YAP50-100 HTRF combined: EC50
Chain of TEAD3 YAP50-100 (Q99594 173-435 limits assumed): as the sequence (Q99594 173-435 limits assumed) above
In short: as §1

Chain of TEAD1 YAP50-100 (P28347 167-426 limits assumed): as the sequence (P28347 167-426 limits assumed) above

SMILES	TEAD1 YAP50-100 HTRF combined: Max % Inhibition (TEAD1 YAP50-100)	EC50 (TEAD1 YAP50-100)	TEAD2 TAZ HTRF combined: Max % Inhibition [1]	EC50 [1]	TEAD4 TAZ HTRF combined: Max % Inhibition [2]	EC50 [2]	TEAD1 TAZ HTRF combined: Max % Inhibition [3]	EC50 [3]	TEAD3 TAZ HTRF combined: Max % Inhibition [4]	EC50 [4]	TEAD4 YAP50-100 HTRF combined: Max % Inhibition (TEAD4 YAP50-100)	EC50 (TEAD4 YAP50-100)	TEAD2 YAP50-100 HTRF combined: Max % Inhibition (TEAD2 YAP50-100)	EC50 (TEAD2 YAP50-100)	TEAD3 YAP50-100 HTRF combined: Max % Inhibition (TEAD3 YAP50-100)	EC50 (TEAD3 YAP50-100)
N#Cc1nccnc1-c1nn2c(=O)cc(-c3ccc(C4CCCCC4)cc3)[nH]c2c1C(=O)N1CC(CF)C1 [Compound 8, 3-(5-(4-Cyclohexylphenyl)-3-(3-(fluoromethyl)azetidine-1-carbonyl)-7-oxo-4,7-dihydropyrazolo[1,5-a]pyimidin-2-yl)pyrazine-2-carbonitrile]	77.0%	80 nM	54.0%	20 nM	44.5%	370 nM	71.0%	110 nM	61.0%	120 nM	45.5%	470 nM	51.0%	20 nM	69.5%	110 nM
Cc1ccnc(-c2nn3c(=O)cc(-c4ccc(C5CCCCC5)cc4)[nH]c3c2C(=O)N2CC(CF)C2)n1 [Compound 9, 5-(4-Cyclohexylphenyl)-3-(3-(fluoromethyl)azetidine-1-carbonyl)-2-(4-methylpyrimidin-2-yl)pyrazolo[1,5-a]pyrimidin-7(4H)-one]	71.0%	30 nM	63.0%	10 nM	56.0%	30 nM	69.5%	40 nM	52.5%	90 nM	52.0%	30 nM	62.0%	10 nM	62.0%	80 nM
CC(C)c1ccnc(-c2nn3c(=O)cc(-c4ccc(C5CCCCC5)cc4)[nH]c3c2C(=O)N2CC(CF)C2)n1 [Compound 10, 5-(4-Cyclohexylphenyl)-3-(3-(fluoromethyl)azetidine-1-carbonyl)-2-(4-isopropylpyrimidin-2-yl)pyrazolo[1,5-a]pyrimidin-7(4H)-one]	77.0%	60 nM	65.0%	10 nM	62.0%	540 nM	72.0%	60 nM	61.5%	140 nM	60.5%	670 nM	67.0%	10 nM	70.5%	120 nM
O=C(c1c(-c2nccc(C(F)(F)F)n2)nn2c(=O)cc(-c3ccc(C4CCCCC4)cc3)[nH]c12)N1CC(CF)C1 [Compound 11, 5-(4-Cyclohexylphenyl)-3-(3-(fluoromethyl)azetidine-1-carbonyl)-2-(4-(trifluoromethyl)pyrimidin-2-yl)pyrazolo[1,5-a]pyrimidin-7(4H)-one]	74.0%	70 nM	63.0%	20 nM	48.5%	860 nM	69.0%	70 nM	61.0%	120 nM	48.0%	1050 nM	63.5%	20 nM	68.5%	120 nM
CCc1ccnc(-c2nn3c(=O)cc(-c4ccc(C5CCCCC5)cc4)[nH]c3c2C(=O)N2CC(CF)C2)n1 [Compound 12, 5-(4-Cyclohexylphenyl)-2-(4-ethylpyrimidin-2-yl)-3-(3-(fluoromethyl)azetidine-1-carbonyl)pyrazolo[1,5-a]pyrimidin-7(4H)-one]	72.0%	140 nM	64.5%	20 nM	58.0%	180 nM	67.5%	110 nM	56.0%	240 nM	55.0%	200 nM	69.0%	20 nM	66.0%	190 nM
COc1nccnc1-c1nn2c(=O)cc(-c3ccc(C4CCCCC4)cc3)[nH]c2c1C(=O)N1CC(CF)C1 [Compound 13, 5-(4-Cyclohexylphenyl)-3-(3-(fluoromethyl)azetidine-1-carbonyl)-2-(3-methoxypyrazin-2-yl)pyrazolo[1,5-a]pyrimidin-7(4H)-one]	74.0%	80 nM	60.0%	20 nM	40.0%	130 nM	66.5%	100 nM	56.5%	180 nM	50.0%	210 nM	65.0%	20 nM	71.5%	180 nM
COc1ccnc(-c2nn3c(=O)cc(-c4ccc(C5CCCCC5)cc4)[nH]c3c2C(=O)N2CC(CF)C2)n1 [Compound 14, 5-(4-Cyclohexylphenyl)-3-(3-(fluoromethyl)azetidine-1-carbonyl)-2-(4-methoxypyrimidin-2-yl)pyrazolo[1,5-a]pyrimidin-7(4H)-one]	73.0%	30 nM	67.5%	10 nM	53.5%	50 nM	74.0%	60 nM	52.5%	80 nM	50.0%	60 nM	62.5%	10 nM	61.0%	90 nM
O=C(c1c(-c2ncccn2)nn2c(=O)cc(-c3ccc(C4CCCCC4)cc3)[nH]c12)N1CC(CF)C1 [Compound 15, 5-(4-Cyclohexylphenyl)-3-(3-(fluoromethyl)azetidine-1-carbonyl)-2-(pyrimidin-2-yl)pyrazolo[1,5-a]pyrimidin-7(4H)-one]	74.0%	30 nM	62.0%	10 nM	49.0%	20 nM	64.0%	40 nM	55.8%	70 nM	50.5%	30 nM	64.8%	10 nM	64.0%	70 nM
O=C(c1c(-c2ccccn2)nn2c(=O)cc(-c3ccc(C4CCCCC4)cc3)[nH]c12)N1CC(CF)C1 [Compound 16, 5-(4-Cyclohexylphenyl)-3-(3-(fluoromethyl)azetidine-1-carbonyl)-2-(pyridin-2-yl)pyrazolo[1,5-a]pyrimidin-7(4H)-one]	70.0%	60 nM	53.5%	10 nM	38.0%	20 nM	59.5%	50 nM	44.5%	80 nM	40.5%	20 nM	57.5%	10 nM	55.0%	80 nM
